Our source for the IC50 and IC90 values is PubChem BioAssay AID434987 (Southern Research Specialized Biocontainment Screening …, 2010).

Calls of active or inactive are those of the source. The rule behind the calls is not given here.

This experiment deals with M. tuberculosis H37Rv growth inhibition with meropenem. As to the kind of experiment: dose response, H37Rv, with and without meropenem (AID 434987).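 Note: growth over 7 days at 37 °C before Alamar Blue read on day 9.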
[1] abbreviates: M. tuberculosis H37Rv growth inhibition, measured here: IC50 without meropenem.
Where [2] appears, read: M. tuberculosis H37Rv growth inhibition, measured here: IC90 without meropenem.
[3] abbreviates: measured here: IC90 with meropenem.

For orientation: IC50 means the concentration that gives 50% inhibition. In general, IC90 refers to the concentration at which the effect reaches the 90% level. A lower IC90 goes with greater potency. Take `O=C(N/N=C/C(Br)=C\c1ccccc1)c1ccc2nc[nH]c2c1`: the IC50 was 30.4 µM. The IC50 under setting [1] is > 100 µM. The IC90 under setting [2] was > 100 µM. Besides, the IC90 under setting [3] is > 100 µM.
With `CCCC(=O)Nc1nc(-c2ccccc2)ns1`, the IC50 is > 100 µM (inactive). The IC50 under setting [1] was > 100 µM. Also, under setting [2], the IC90 is > 100 µM. For the same molecule, the IC90 under setting [3] is > 100 µM.
On to `Cc1ccccc1OCC(=O)Nc1ccccc1N1CCOCC1`, for which the IC50 was 51.3 µM (inactive). Also, under setting [1], the IC50 is > 100 µM. Also, under setting [2], the 90% effect concentration (IC90) is > 100 µM. Under setting [3], the IC90 is > 100 µM.
As for `O=c1oc(-c2ccco2)nc2sc3c(c12)CCCCC3`, the IC50 was 9.28 µM. The same molecule gave an IC50 under setting [1] of 67.6 µM. This molecule gave an IC90 under setting [2] of 90.2 µM. In addition, the IC90 under setting [3] is 38.5 µM.
In the case of `O=C(CSc1nnc(SCc2ccc(Cl)cc2)s1)c1ccc2c(c1)OCO2`, the IC50 is > 100 µM (inactive). For the same molecule, the IC50 under setting [1] is > 100 µM. Also, the IC90 under setting [2] was > 100 µM. Besides, the IC90 under setting [3] is > 100 µM.
`Cc1ccc(C(=O)Nc2ccc(N3CCN(C(=O)c4cccs4)CC3)cc2)c(Cl)c1`: the IC50 is > 100 µM (inactive). Under setting [1], the IC50 was > 100 µM. Under setting [2], the IC90 is > 100 µM. Further, the IC90 under setting [3] is > 100 µM.
On to `CCn1c(-c2ccc(-c3ccccc3)cc2)c[nH]c1=S`, for which the IC50 is 29.1 µM (inactive). This molecule also yielded an IC50 under setting [1] of 47.8 µM. For the same molecule, the IC90 under setting [2] is > 100 µM. Also, the IC90 under setting [3] is > 100 µM.
For `O=C(NC1c2ccccc2-c2ccccc21)c1ccco1`, the IC50 was > 100 µM (inactive). For the same molecule, the IC50 under setting [1] was > 100 µM. Further, under setting [2], the IC90 was > 100 µM. Besides, the IC90 under setting [3] is > 100 µM.
As to `Cc1ccc(OC(=O)COc2ccccc2)c(-n2nc3ccccc3n2)c1`, the IC50 is > 100 µM (inactive). Besides, the IC50 under setting [1] is > 100 µM. In addition, the IC90 under setting [2] was > 100 µM. The concentration for an effect of 90% (IC90) under setting [3] is > 100 µM.
On to `C=CCn1c(SCc2ccc(C(=O)Nc3nccs3)cc2)nnc1-c1ccc(C)c(Cl)c1`, for which the IC50 is 95.3 µM (inactive). Also, the IC50 under setting [1] was > 100 µM. Besides, under setting [2], the IC90 was > 100 µM. Moreover, the IC90 under setting [3] is > 100 µM.
For the molecule `Cc1ccccc1OCC(=O)Nc1ccccc1-c1ccccc1`, the concentration for half-maximal inhibition (IC50) is 6.04 µM. Further, under setting [1], the IC50 was > 100 µM. In addition, under setting [2], the IC90 is > 100 µM. Further, the IC90 under setting [3] is > 100 µM.
For `CCn1nc(C)c([N+](=O)[O-])c1C(=O)NNC(=O)c1ccccc1Cl`, the IC50 was > 100 µM (inactive). The half-inhibitory concentration (IC50) under setting [1] was > 100 µM. Under setting [2], the IC90 is > 100 µM. Under setting [3], the concentration for an effect of 90% (IC90) was > 100 µM.
With `COc1ccc(C(=O)Nc2ccc3nc(N4CCCCC4)cc(C)c3c2)c(OC)c1`, the IC50 was 5.19 µM. Also, under setting [1], the IC50 was > 100 µM. Moreover, under setting [2], the IC90 was > 100 µM. Moreover, the IC90 under setting [3] was > 100 µM.
As to `COc1ccc(CNC(=O)C2CCN(S(=O)(=O)c3c(C)noc3/C=C/N(C)C)CC2)cc1`, the IC50 is > 100 µM (inactive). Further, the IC50 under setting [1] was > 100 µM. For the same molecule, the IC90 under setting [2] is > 100 µM. Further, the 90% effect concentration (IC90) under setting [3] was > 100 µM.
Turning to `O=S(=O)(Nc1ccccc1)c1ccc2c(c1)CCO2`, the IC50 is > 100 µM (inactive). Moreover, under setting [1], the IC50 was > 100 µM. The IC90 under setting [2] was > 100 µM. Also, the IC90 under setting [3] was > 100 µM.
Regarding `CCC(=O)NC(=S)Nc1ccc(NC(=O)c2cccc([N+](=O)[O-])c2C)cc1`, the IC50 was > 100 µM (inactive). In addition, the IC50 under setting [1] was > 100 µM. The 90% effect concentration (IC90) under setting [2] is > 100 µM. Also, under setting [3], the IC90 was > 100 µM.
Regarding `CCCCN=C1CC(C)(C)CC(=O)/C1=C(/O)CCC`, the IC50 was 18.9 µM (inactive). Also, under setting [1], the IC50 amounted to 42.1 µM. Besides, the IC90 under setting [2] is > 100 µM. This molecule showed an IC90 under setting [3] of 28.7 µM.
For `S=c1nccc(-c2ccc3c(c2)CCO3)[nH]1`, in that order: > 100 µM (inactive), > 100 µM, > 100 µM and > 100 µM.
Consider `O=c1c2ccccc2c(-c2ccccc2)nn1-c1ccccc1`, for which the half-maximal inhibitory concentration (IC50) was 19.7 µM. Moreover, the IC50 under setting [1] is > 100 µM. Moreover, the IC90 under setting [2] is > 100 µM. Further, under setting [3], the IC90 is > 100 µM.
Consider `CCOC(=O)c1sc(Nc2nc3c(OC)cccc3s2)cc1C`, for which the IC50 is 98.6 µM (inactive). In addition, the IC50 under setting [1] was 89 µM. Under setting [2], the IC90 is > 100 µM. Also, under setting [3], the IC90 is > 100 µM.
For the molecule `O=C(N/N=C/c1ccc2c(c1)OCO2)c1sc2cc(Cl)ccc2c1Cl`, the IC50 is > 100 µM (inactive). For the same molecule, the IC50 under setting [1] is > 100 µM. Besides, under setting [2], the IC90 is > 100 µM. Further, under setting [3], the concentration for an effect of 90% (IC90) was > 100 µM.
In the case of `O=C(CCN1c2ccccc2Sc2ccccc21)Oc1ccccc1`, the half-maximal inhibitory concentration (IC50) was 8.48 µM. The IC50 under setting [1] is > 100 µM. The IC90 under setting [2] was > 100 µM. Further, the IC90 under setting [3] was > 100 µM.
Take `O=C(Nc1nc(-c2ccc(F)c(F)c2)cs1)c1cnccn1`: the IC50 is 14.6 µM. In addition, under setting [1], the 50% inhibitory concentration (IC50) is > 100 µM. Further, the IC90 under setting [2] was > 100 µM. For the same molecule, the IC90 under setting [3] was > 100 µM.
